pEC50, pIC50: −log10 of the molar value.
Tests used:
PD-1/PD-L1 interaction = PD-1/PD-L1 interaction (Homo sapiens (Human), UniProt Q9NZQ7); assay: PD-1/PD-L1 NFAT Reporter Assay (Jurkat T cells / PD-L1 expressing CHO cells co-culture); assay type: cell-based; conditions: for pEC50: co-culture 6 hrs at 37° C., luciferase
Experimental: Blocking the PD-1/PD-L1 interaction will release the inhibitory signal and results in TCR signaling and NFAT-mediated luciferase activity.
CHO cells expressing surface-bound anti-CD3 antibodies and PD-L1 were first seeded overnight and treated with the compounds. Jurkat cells overexpressing PD-1 and a luciferase construct under NF-AT promoter were then immediately seeded on the monolayer of CHO cells. The co-culture was then incubated for 6 hrs at 37° C. Luciferase activity was assessed by adding the ONE-Glo reagent and measuring luminescence with a plate reader. EC50s values were determined from the fit of the dose-response curves Emax (%) corresponds to the maximum NFAT-activation level reached by a given compound relative to the positive control (10 nM Atezolizumab).

PDL1/PD1 = PDL1/PD1 (Homo sapiens (Human), UniProt Q9NZQ7); assay: PDL1/PD1 Binding Assay; conditions: PDL1-6xHis 0.3 nM, PD1-Fc-Avi-Biotin 2.5 nM, Acceptor/Donor beads; read-out: PD-1/PD-L1 PPI IC50
Experimental: Compounds to be tested were serially diluted in DMSO, and further diluted in assay buffer (25 mM Hepes pH 7.4, 150 mM NaCl, 0.005% Tween 20, BSA 0.01%). Diluted compounds were added to the wells with final concentration of DMSO at 1%. PDL1-6×His protein was added to the wells, mixed well with compound. The plates were incubated for 30 min at room temperature. PD1-Fc-Avi-Biotin protein was added to the wells. Final concentration of PDL1 and PD1 protein is 0.3 nM and 2.5 nM, respectively. After a binding time of 30 min at room temperature, Anti-6×His Acceptor beads (final concentration 20 ug/ml) were added to the wells, and the incubation continued for 1 h. Streptavidin Donor beads (final concentration 20 ug/mL) were added at reduced light. The plates were sealed with foil and incubated in the dark for additional 1 h or overnight before reading on an Envision reader. The IC50 values were determined by fitting the curves using a four-parameter equation in Graphpad Prism 8.

Chain of PDL1/PD1 (Q9NZQ7 19-238): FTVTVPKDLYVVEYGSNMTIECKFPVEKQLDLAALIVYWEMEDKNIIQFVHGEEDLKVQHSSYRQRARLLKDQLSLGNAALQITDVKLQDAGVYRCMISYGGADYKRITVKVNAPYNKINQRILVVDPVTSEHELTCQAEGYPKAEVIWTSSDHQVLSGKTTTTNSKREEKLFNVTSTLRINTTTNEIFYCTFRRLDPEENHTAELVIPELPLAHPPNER
Chain of PD-1/PD-L1 interaction (Q9NZQ7 19-290): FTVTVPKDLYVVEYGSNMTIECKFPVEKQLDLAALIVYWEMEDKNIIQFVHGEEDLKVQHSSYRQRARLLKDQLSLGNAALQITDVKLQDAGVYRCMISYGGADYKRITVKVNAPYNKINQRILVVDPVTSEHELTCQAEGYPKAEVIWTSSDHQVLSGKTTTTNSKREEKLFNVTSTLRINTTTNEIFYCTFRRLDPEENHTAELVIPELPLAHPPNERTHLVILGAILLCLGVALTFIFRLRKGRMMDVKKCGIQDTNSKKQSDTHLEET

SMILES	pEC50 (PD-1/PD-L1 interaction)	pIC50 (PDL1/PD1)	Emax (PD-1/PD-L1 interaction; Jurkat, maximum NFAT-activation level relative to the positive control (10 nM Atezolizumab))
COc1nc(-c2cccc(-c3cccc(-c4cc5c(c(OC)n4)[C@H](N4CC6(CN(C(C)=O)C6)C4)CC5)c3Cl)c2Cl)cnc1CNC[C@@H]1CCC(=O)N1 (single isomer, unassigned) [Compound D-17]	7.00 to 8.00	≥ 8.00	
COc1nc(-c2cccc(-c3cccc(-c4cc5c(c(OC)n4)[C@@H](N4CC6(CN(C(C)=O)C6)C4)CC5)c3Cl)c2Cl)cnc1CN1CC2(C1)CN(C(C)=O)C2 (single isomer, unassigned) [Compound D-18]	< 5.00	≥ 8.00	
COc1nc(-c2cccc(-c3cccc(-c4cc5c(c(OC)n4)[C@H](N4CC6(CN(C(C)=O)C6)C4)CC5)c3Cl)c2Cl)cnc1CN1CC2(C1)CN(C(C)=O)C2 (single isomer, unassigned) [Compound D-19]	≥ 8.00	≥ 8.00	
COc1nc(-c2cccc(-c3cccc(-c4cc5c(c(OC)n4)[C@@H](NC[C@@H]4CCC(=O)N4)CO5)c3Cl)c2Cl)cc(C)c1CN1CC2(C1)CN(C(C)=O)C2 (single isomer, unassigned) [Compound E-4]	≥ 8.00	≥ 8.00	
CCOC(=O)CN[C@H]1CCc2cc(-c3cccc(-c4cccc(-c5cnc(CN6CC7(CCC(=O)N7)C6)c(OC)n5)c4Cl)c3Cl)cc(OC)c21 [Compound A-1]		≥ 8.00	33%
COc1nc(-c2cccc(-c3cccc(-c4cc5c(c(OC)n4)[C@H](NC[C@@H]4CCC(=O)N4)CC5)c3Cl)c2Cl)cnc1CN1CC2(CCC(=O)N2)C1 [Compound C-2]	6.00 to 7.00	≥ 8.00	
COc1nc(-c2cccc(-c3cccc(-c4cc5c(c(OC)n4)C(NC[C@H]4CCC(=O)N4)CC5)c3Cl)c2Cl)cnc1CN1CC2(CCC(=O)N2)C1 (stereo partly drawn) [Compound C-7]	7.00 to 8.00	≥ 8.00	
COc1nc(-c2cccc(-c3cccc(-c4cc5c(c(OC)n4)C(NC4CN(C(C)=O)C4)CC5)c3Cl)c2Cl)cnc1CN1CC2(CCC(=O)N2)C1 (stereo not drawn) [Compound C-8]	7.00 to 8.00	≥ 8.00	
COc1nc(-c2cccc(-c3cccc(-c4cc5c(c(OC)n4)C(N4CCC(F)(F)C4)CC5)c3Cl)c2Cl)cnc1CN1CC2(CCC(=O)N2)C1 (stereo not drawn) [Compound C-9]	6.00 to 7.00	≥ 8.00	
COc1nc(-c2cccc(-c3cccc(-c4cc5c(c(OC)n4)C(N4CCN(C(C)=O)CC4)CC5)c3Cl)c2Cl)cnc1CN1CC2(CCC(=O)N2)C1 (stereo not drawn) [Compound C-10]	7.00 to 8.00	≥ 8.00	
COc1nc(-c2cccc(-c3cccc(-c4cc5c(c(OC)n4)C(N4CC6(CN(C(C)=O)C6)C4)CC5)c3Cl)c2Cl)cnc1CN1CC2(CCC(=O)N2)C1 (stereo not drawn) [Compound C-11]	7.00 to 8.00	≥ 8.00	
CCOc1nc(-c2cccc(-c3cccc(-c4cnc(CN5CC6(CCC(=O)N6)C5)c(OC)n4)c3Cl)c2Cl)cc2c1C(NC[C@@H]1CCC(=O)N1)CC2 (stereo partly drawn) [Compound C-12]	7.00 to 8.00	≥ 8.00	
COc1nc(-c2cccc(-c3cccc(-c4cc5c(c(OCC6CC6)n4)C(NC[C@@H]4CCC(=O)N4)CC5)c3Cl)c2Cl)cnc1CN1CC2(CCC(=O)N2)C1 (stereo partly drawn) [Compound C-14]	7.00 to 8.00	≥ 8.00	
COc1nc(-c2cccc(-c3cccc(-c4cc5c(c(OCc6ccccn6)n4)C(NC[C@@H]4CCC(=O)N4)CC5)c3Cl)c2Cl)cnc1CN1CC2(CCC(=O)N2)C1 (stereo partly drawn) [Compound C-15]	7.00 to 8.00	≥ 8.00	
COc1nc(-c2cccc(-c3cccc(-c4cc5c(c(OC)n4)[C@@H](NC[C@@H]4CCC(=O)N4)CC5)c3Cl)c2Cl)cnc1CNC[C@@H]1CCC(=O)N1 [Compound D-2]	≥ 8.00	≥ 8.00	
COc1nc(-c2cccc(-c3cccc(-c4cc5c(c(OC)n4)[C@@H](NC[C@@H]4CCC(=O)N4)CC5)c3Cl)c2Cl)cnc1CN1CC2(CCCO2)C1 [Compound D-3]	≥ 8.00	≥ 8.00	
COc1nc(-c2cccc(-c3cccc(-c4cc5c(c(OC)n4)[C@@H](NC[C@@H]4CCC(=O)N4)CC5)c3Cl)c2Cl)cnc1CN1CC(F)C1 [Compound D-4]	7.00 to 8.00	≥ 8.00	
COc1nc(-c2cccc(-c3cccc(-c4cc5c(c(OC)n4)[C@@H](NC[C@@H]4CCC(=O)N4)CC5)c3Cl)c2Cl)cnc1CN1CC(F)(F)C1 [Compound D-5]	7.00 to 8.00	≥ 8.00	
COc1nc(-c2cccc(-c3cccc(-c4cc5c(c(OC)n4)[C@@H](NC[C@@H]4CCC(=O)N4)CC5)c3Cl)c2Cl)cnc1CN1CCN(C(C)=O)CC1 [Compound D-6]	≥ 8.00	≥ 8.00	
COc1nc(-c2cccc(-c3cccc(-c4cc5c(c(OC)n4)[C@H](NC[C@@H]4CCC(=O)N4)CC5)c3Cl)c2Cl)cnc1CN1CC(O)C1 [Compound D-7]	6.00 to 7.00	≥ 8.00	
COc1nc(-c2cccc(-c3cccc(-c4cc5c(c(OC)n4)[C@@H](NC[C@@H]4CCC(=O)N4)CC5)c3Cl)c2Cl)cnc1CN1CC(O)C1 [Compound D-8]	≥ 8.00	≥ 8.00	
COc1nc(-c2cccc(-c3cccc(-c4cc5c(c(OC)n4)[C@@H](NC[C@@H]4CCC(=O)N4)CC5)c3Cl)c2Cl)cnc1CN1CC(OC)C1 [Compound D-9]	≥ 8.00	≥ 8.00	
COc1nc(-c2cccc(-c3cccc(-c4cc5c(c(OC)n4)[C@H](NC[C@@H]4CCC(=O)N4)CC5)c3Cl)c2Cl)cnc1CN1CC(OC)C1 [Compound D-10]	5.00 to 6.00	≥ 8.00	
COc1nc(-c2cccc(-c3cccc(-c4cc5c(c(OC)n4)[C@@H](NC[C@@H]4CCC(=O)N4)CC5)c3Cl)c2Cl)cnc1CN1CCCC1 [Compound D-11]	≥ 8.00	≥ 8.00	
COc1nc(-c2cccc(-c3cccc(-c4cc5c(c(OC)n4)[C@@H](NC[C@@H]4CCC(=O)N4)CC5)c3Cl)c2Cl)cnc1CN1C[C@@H](O)[C@@H]1C [Compound D-13]	≥ 8.00	≥ 8.00	
COc1nc(-c2cccc(-c3cccc(-c4cc5c(c(OC)n4)[C@@H](NC[C@@H]4CCC(=O)N4)CC5)c3Cl)c2Cl)ccc1CN1CC2(CCC(=O)N2)C1 [Compound E-3]	≥ 8.00	≥ 8.00	

The remaining lines, values ahead:

pEC50 (PD-1/PD-L1 interaction)	pIC50 (PDL1/PD1)	Emax (PD-1/PD-L1 interaction; Jurkat, maximum NFAT-activation level relative to the positive control (10 nM Atezolizumab))	SMILES
7.00 to 8.00	≥ 8.00		CCOC(=O)C1CN([C@H]2CCc3cc(-c4cccc(-c5cccc(-c6cnc(CN7CC(OC)C7)c(OC)n6)c5Cl)c4Cl)nc(OC)c32)C1 (single isomer, unassigned) [Compound G-5]
5.00 to 6.00	≥ 8.00		CCOC(=O)C1CN([C@@H]2CCc3cc(-c4cccc(-c5cccc(-c6cnc(CN7CC(OC)C7)c(OC)n6)c5Cl)c4Cl)nc(OC)c32)C1 (single isomer, unassigned) [Compound G-6]
7.00 to 8.00	≥ 8.00		COc1nc(-c2cccc(-c3cccc(-c4cc5c(c(OC)n4)[C@@H](N4CC(C(=O)O)C4)CC5)c3Cl)c2Cl)cnc1CN1CC(OC)C1 (single isomer, unassigned) [Compound H-3]
6.00 to 7.00	≥ 8.00		COc1nc(-c2cccc(-c3cccc(-c4cc5c(c(OC)n4)[C@H](N4CC(C(=O)O)C4)CC5)c3Cl)c2Cl)cnc1CN1CC(OC)C1 (single isomer, unassigned) [Compound H-4]
7.00 to 8.00	≥ 8.00		COc1nc(-c2cccc(-c3cccc(-c4cc5c(c(OC)n4)[C@@H](N4CC(C(=O)O)C4)CC5)c3Cl)c2Cl)cnc1CN1C[C@@H](O)[C@@H]1C (single isomer, unassigned) [Compound H-5]
6.00 to 7.00	≥ 8.00		COc1nc(-c2cccc(-c3cccc(-c4cc5c(c(OC)n4)[C@H](N4CC(C(=O)O)C4)CC5)c3Cl)c2Cl)cnc1CN1C[C@@H](O)[C@@H]1C (single isomer, unassigned) [Compound H-6]
7.00 to 8.00	≥ 8.00		COc1nc(-c2cccc(-c3cccc(-c4cc5c(c(OC)n4)C(N4CCC[C@H](C(=O)O)C4)CC5)c3Cl)c2Cl)cnc1CN1CC(O)C1 (stereo partly drawn) [Compound F-2]
7.00 to 8.00	≥ 8.00		COc1nc(-c2cccc(-c3cccc(-c4cc5c(c(OC)n4)C(N4CCC(C(=O)O)CC4)CC5)c3Cl)c2Cl)cnc1CN1CC(O)C1 (stereo not drawn) [Compound F-3]
7.00 to 8.00	≥ 8.00		COc1nc(-c2cccc(-c3cccc(-c4cc5c(c(OC)n4)CCN(CC(=O)O)C5)c3Cl)c2Cl)cnc1CN1CC(C)(O)C1 [Compound J-2]
5.00 to 6.00	≥ 8.00		COc1nc(-c2cccc(-c3cccc(-c4cc5c(c(OC)n4)CCN(CC(=O)O)C5)c3Cl)c2Cl)cnc1CN1CC(O)(C(F)(F)F)C1 [Compound J-3]
